# Laboratory results taken from ChEMBL document CHEMBL1153801, “4-(Benzimidazol-2-yl)-1,2,5-oxadiazol-3-ylamine derivatives: potent and selective p70S6 kinase inhibitors” (Bioorg Med Chem Lett, 2009).
# How the values were obtained:
# [1] = target: Rho-associated protein kinase 1 (Homo sapiens, UniProt Q13464)
# Description: Inhibition of ROCK1 assessed as decrease in NADH absorbance at 340 nm in the presence of
# [2] = target: Ribosomal protein S6 kinase beta-1 (Homo sapiens, UniProt P23443); experiment: Inhibition of p70S6K assessed as decrease in NADH absorbance at 340 nm in the presence of
# [3] = target: cAMP-dependent protein kinase catalytic subunit alpha (Homo sapiens, UniProt P17612); experiment: Inhibition of PKAalpha assessed as decrease in NADH absorbance at 340 nm in the presence of
# [4] = target: Glycogen synthase kinase-3 beta (Homo sapiens, UniProt P49841)
# Chain of Glycogen synthase kinase-3 beta (P49841 whole entry): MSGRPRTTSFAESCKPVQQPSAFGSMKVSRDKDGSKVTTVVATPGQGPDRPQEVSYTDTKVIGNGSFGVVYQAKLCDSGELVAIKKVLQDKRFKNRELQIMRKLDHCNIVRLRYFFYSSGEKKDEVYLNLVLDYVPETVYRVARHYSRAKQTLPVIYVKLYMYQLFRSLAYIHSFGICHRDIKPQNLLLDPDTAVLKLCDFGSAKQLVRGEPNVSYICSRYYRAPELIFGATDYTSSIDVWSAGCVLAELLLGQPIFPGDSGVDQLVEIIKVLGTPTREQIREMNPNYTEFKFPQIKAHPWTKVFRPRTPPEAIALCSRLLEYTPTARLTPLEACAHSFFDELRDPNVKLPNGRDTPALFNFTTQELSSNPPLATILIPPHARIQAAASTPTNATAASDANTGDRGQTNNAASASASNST
# Chain of Ribosomal protein S6 kinase beta-1 (P23443 whole entry): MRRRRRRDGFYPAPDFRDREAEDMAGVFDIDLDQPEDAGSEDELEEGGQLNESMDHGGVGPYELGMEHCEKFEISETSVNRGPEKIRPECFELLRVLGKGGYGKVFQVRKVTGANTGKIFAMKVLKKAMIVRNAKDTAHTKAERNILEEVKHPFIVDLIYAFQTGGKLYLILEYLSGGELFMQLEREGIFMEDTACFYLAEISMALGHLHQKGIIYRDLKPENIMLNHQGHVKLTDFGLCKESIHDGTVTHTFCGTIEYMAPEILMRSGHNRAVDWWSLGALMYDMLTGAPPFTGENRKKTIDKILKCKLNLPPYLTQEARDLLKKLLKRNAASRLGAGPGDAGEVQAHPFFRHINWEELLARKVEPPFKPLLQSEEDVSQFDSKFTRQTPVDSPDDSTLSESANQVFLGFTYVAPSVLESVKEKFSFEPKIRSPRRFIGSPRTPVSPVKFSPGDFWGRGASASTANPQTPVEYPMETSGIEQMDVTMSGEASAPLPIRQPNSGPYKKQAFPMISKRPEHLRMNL
# Chain of Rho-associated protein kinase 1 (Q13464 whole entry): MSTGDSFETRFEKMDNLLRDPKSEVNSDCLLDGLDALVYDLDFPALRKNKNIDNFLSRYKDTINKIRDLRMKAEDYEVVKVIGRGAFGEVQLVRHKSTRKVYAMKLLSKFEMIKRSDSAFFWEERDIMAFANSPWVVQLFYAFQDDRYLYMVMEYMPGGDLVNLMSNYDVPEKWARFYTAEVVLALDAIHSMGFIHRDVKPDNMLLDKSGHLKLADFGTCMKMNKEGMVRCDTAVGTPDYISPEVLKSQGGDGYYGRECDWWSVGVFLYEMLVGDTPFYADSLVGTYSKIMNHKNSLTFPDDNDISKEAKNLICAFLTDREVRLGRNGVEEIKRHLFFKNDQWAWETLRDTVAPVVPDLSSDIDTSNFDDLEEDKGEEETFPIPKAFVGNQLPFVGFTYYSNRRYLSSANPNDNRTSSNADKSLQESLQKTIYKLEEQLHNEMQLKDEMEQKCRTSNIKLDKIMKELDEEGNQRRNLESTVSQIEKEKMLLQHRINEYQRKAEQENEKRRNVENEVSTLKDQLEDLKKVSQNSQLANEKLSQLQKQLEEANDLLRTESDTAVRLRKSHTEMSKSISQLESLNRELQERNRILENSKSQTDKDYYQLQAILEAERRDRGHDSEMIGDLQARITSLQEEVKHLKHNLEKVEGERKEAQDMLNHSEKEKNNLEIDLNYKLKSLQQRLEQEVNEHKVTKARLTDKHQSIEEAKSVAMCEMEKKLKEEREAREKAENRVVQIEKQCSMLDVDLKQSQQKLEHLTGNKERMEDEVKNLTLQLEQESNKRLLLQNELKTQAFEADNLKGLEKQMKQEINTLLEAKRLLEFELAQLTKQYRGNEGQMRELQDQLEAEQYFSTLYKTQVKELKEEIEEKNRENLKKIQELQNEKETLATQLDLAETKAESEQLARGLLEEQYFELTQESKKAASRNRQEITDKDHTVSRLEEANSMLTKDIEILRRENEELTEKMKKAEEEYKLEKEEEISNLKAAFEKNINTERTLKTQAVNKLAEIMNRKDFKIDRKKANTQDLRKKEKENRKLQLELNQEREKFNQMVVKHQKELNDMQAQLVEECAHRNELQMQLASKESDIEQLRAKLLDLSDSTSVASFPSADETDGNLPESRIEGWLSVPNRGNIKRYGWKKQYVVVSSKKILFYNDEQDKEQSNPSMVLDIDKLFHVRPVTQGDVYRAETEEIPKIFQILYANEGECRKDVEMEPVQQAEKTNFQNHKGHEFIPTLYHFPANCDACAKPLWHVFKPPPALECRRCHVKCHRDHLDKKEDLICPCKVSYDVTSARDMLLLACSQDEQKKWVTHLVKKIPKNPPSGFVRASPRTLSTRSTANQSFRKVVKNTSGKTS
Ki [1],Ki [2],Ki [3],Ki [4],SMILES
> 3300 nM,89 nM,1200 nM,> 3300 nM,CC(C)Cn1cc(-c2ccccc2)nc1-c1nonc1N
> 3300 nM,340 nM,> 3300 nM,690 nM,Cc1cn(CC(C)C)c(-c2nonc2N)n1
1300 nM,31 nM,> 5000 nM,> 5000 nM,COc1ccccc1-n1c(-c2nonc2N)nc2ccccc21
330 nM,50 nM,960 nM,700 nM,CCn1c(-c2nonc2N)nc2ccccc21 [GW549034X]
> 3300 nM,2200 nM,> 3300 nM,> 3300 nM,CC(=O)Nc1ccc2c(c1)nc(-c1nonc1N)n2C1CCC1
940 nM,39 nM,2500 nM,460 nM,COc1ccc2c(c1)nc(-c1nonc1N)n2C1CCC1
930 nM,22 nM,1100 nM,–,CC(C)Cn1c(-c2nonc2N)nc2ccccc21
810 nM,26 nM,> 5000 nM,> 3300 nM,N#Cc1ccccc1-n1c(-c2nonc2N)nc2ccccc21
> 3300 nM,410 nM,> 3300 nM,> 3300 nM,COC(=O)c1ccc2c(c1)nc(-c1nonc1N)n2C1CCC1
> 5000 nM,1900 nM,–,> 5000 nM,COc1cccc(-n2c(-c3nonc3N)nc3ccccc32)c1
180 nM,4 nM,540 nM,380 nM,Nc1nonc1-c1nc2ccccc2n1C1CCC1
> 3300 nM,16 nM,1500 nM,> 3300 nM,Nc1nonc1-c1nc2cc(CO)ccc2n1C1CCC1
2200 nM,< 1 nM,2800 nM,1100 nM,Nc1nonc1-c1nc2cc(O)ccc2n1C1CCC1
> 3300 nM,19 nM,2600 nM,3200 nM,Cc1ccc2c(c1)nc(-c1nonc1N)n2C1CCC1
1900 nM,40 nM,> 3300 nM,1500 nM,CC(C)n1c(-c2nonc2N)nc2ccccc21
> 3300 nM,540 nM,> 4000 nM,7300 nM,Cn1c(-c2nonc2N)nc2ccccc21
> 2500 nM,800 nM,> 5000 nM,1000 nM,N#Cc1ccc(-n2c(-c3nonc3N)nc3ccccc32)cc1
–,69 nM,1400 nM,–,Nc1nonc1-c1nc2ccccc2n1CC1CCC1
> 3300 nM,1600 nM,> 3300 nM,> 3300 nM,CC(C)Cn1cc(C#N)nc1-c1nonc1N
2100 nM,550 nM,> 4000 nM,> 5000 nM,COc1ccc(-n2c(-c3nonc3N)nc3ccccc32)cc1
> 2500 nM,800 nM,> 5000 nM,> 2500 nM,N#Cc1cccc(-n2c(-c3nonc3N)nc3ccccc32)c1

SMILES,Ki [1],Ki [2],Ki [3],Ki [4]
Nc1nonc1-c1nc2ccccc2n1C1CCCCC1,720 nM,12 nM,600 nM,240 nM
Nc1ccc2c(c1)nc(-c1nonc1N)n2C1CCC1,85 nM,< 1 nM,34 nM,2100 nM
Nc1nonc1-c1nc2ccccc2n1-c1ccccc1,590 nM,110 nM,1300 nM,620 nM
Nc1nonc1-c1nc2ccccc2n1C1CCCC1,340 nM,13 nM,720 nM,210 nM
Nc1nonc1-c1nc2ccccc2n1CC1CC1,360 nM,12 nM,380 nM,290 nM
Nc1nonc1-c1nc2ccccc2n1C1CC1,450 nM,95 nM,> 3300 nM,> 3300 nM
